Patent publication US5232633A, “Sulfoethyl carbonate wetting agents and their use in detergent compositions” (priority 1992, dated 1993)
Where two headings read alike, the source gives them in different places.

Assays:
[1] = test system: zein; set-up: species or system maize
Description: Specifically, the lower the amount of zein protein dissolved, usually the milder a surfactant is. Conversely, the more zein dissolved, typically the more irritating the surfactant is. In order to test irritancy potential, a 1% solution of surfactant (30 mls) was added to 1.5 g zein and stirred at room temperature for 1 hr. Residual zein was collected and dried to constant weight. Differences between starting and residual weights were used to calculate % zein dissolved.

[2] = Foam height, Ross-Miles method; type: physicochemical; settings: 45° C., water with 120 ppm calcium hardness; for Foam Ht., 10 min Ht.: after 10 minutes
[3] = Critical micelle concentration by surface tension (Wilhemy plate method); type: physicochemical
Excerpt: The CMC is defined as the concentration of a surfactant at which it begins to form micelles in solution rather than precipitate. Specifically, materials that contain both a hydrophobic group and a hydrophilic group, (such as surfactants), will tend to distort the structure of the solvent (i.e, water) they are in and, therefore, increase the free energy of the system. They therefore, concentrate at the surface, whereby orienting so that their hydrophobic groups are directed away from the solvent, the free energy of the solution is minimized. Another means of minimizing the free energy can be achieved by the aggregation of these surface-active molecules into clusters or micelles with their hydrophobic groups directed toward the interior of the cluster and their hydrophilic groups directed toward the solvent.
The value of the CMC is determined by surface tension measurements using the Wilhemy plate method. While not wishing to be bound by theory, it is believed that a low CMC is a measure of surface activity (i.e, lower CMC of one surfactant versus another indicates the surfactant with lower CMC is more surface active). In this regard, it is believed that lower CMC signifies that lesser amounts of a surfactant are required to provide the same surfactancy benefits as a surfactant with higher CMC.

[4] = Krafft point of 1% dispersion of surfactant in water; type: physicochemical; settings: for Krafft Pt.: 1% dispersion in water; for Krafft point (in words): compared with SLI
Description: The temperature at and above which surfactants begin to form micelles instead of precipitates is referred to as Krafft point (Tk) and at this temperature the solubility of an ionic surfactant becomes equal to its CMC.
Krafft point was measured by preparing a 1% dispersion of the surfactant in water. If the surfactant was soluble at room temperature, the solution was cooled to 0° C. […] If it precipitated out, the solution was slowly warmed with stirring in a water bath. The temperature at which the precipitate dissolved was determined to be the Krafft point.
If the Krafft point was above room temperature, the solution was first heated rapidly to dissolve all the surfactant. It was then cooled until precipitation occurred, and was then slowly warmed to determine the Krafft point described above.

[5] = Hydrolytic stability at pH 9, 40° C. by reverse phase HPLC; type: physicochemical; settings: 5×10^-4 M in NaHCO3 buffer with 5% CH3CN, 500 µM
[6] = Calcium ion sensitivity, modified Hart method; type: physicochemical; settings: for Ca + 2 Needed for Prec.: titration with calcium ion solution, visual cloudiness endpoint
Description: The surfactant solution was titrated with a calcium ion solution. The endpoint was determined by visual observation of the cloudiness of the surfactant solution.

[7] = 1% solution of surfactant (30 mls), 1.5 g zein, room temperature, 1 hr

Row | SMILES | % Zein Solub. [1, 7] | Foam Ht., 10 min Ht. [2] | Foam Ht., Initial Ht. [2] | CMC [3] | Krafft Pt. [4] | Krafft point (in words) [4] | Hydrolytic Stability, t 1/2 [5] | Ca + 2 Needed for Prec. [6] | % Zein Solub. [1] | Calcium sensitivity (in words) ([6]; compared with non-carbonated isethionate (SLI))
1 | CCCCCCCCCCCCOCCOCCOC(=O)OCCS(=O)(=O)O [SED(2EO)C, Sodium 2-sulfoethyl dodecyl (2EO) carbonate] | 25% | 160 mm | 165 mm | – | – | – | – | – | – | –
2 | CCCCCCCCCCC(C)OC(=O)OC(C)CS(=O)(=O)O (stereo not shown) [SI2DC, Sodium 2-sulfoisopropyl 2-dodecyl carbonate] | 49% | 149 mm | 156 mm | 2.6 to 2.8 mM | 30 °C | higher | ≈ 70 Days | 2500 ppm | – | –
3 | CCCCCCCCCCCCOC(=O)OC(C)CS(=O)(=O)O (stereo not shown) [SIDC, Sodium 2-sulfoisopropyl dodecyl carbonate] | 51% | 161 mm | 165 mm | 2.39 mM | 15 °C | – | 286 h | 2000 ppm | – | –
4 | CCCCCCCCCCCCOC(=O)OCCS(=O)(=O)O.[Na] | – | 149 mm | – | 2.52 mM | 24 °C | same Krafft point as the SLI | 55.2 h | 150 ppm | 49% | greater calcium insensitivity than the ester SLI
5 | CCCCCCCCCCCCOCCOCCOCCOCCOC(=O)OCCS(=O)(=O)O [SED(4EO)C, Sodium 2-sulfoethyl dodecyl (4EO) carbonate] | 17% | 152 mm | 158 mm | – | – | – | – | – | – | –
6 | CCCCCCCCCCCC(=O)OCCS(=O)(=O)O [SLI, sodium lauroyl isethionate, reference compound] | – | negligible | negligible | 6.2 mM | 24 °C | – | 24 h | 51 ppm | – | –
7 | CCCCCCCCCCCCOC(=O)OC(CC)CS(=O)(=O)O (stereo not shown) [S2DBC, Sodium 2-(1-sulfo)butyl dodecyl carbonate] | 41% | 142 mm | 166 mm | 1.46 mM | 0 °C | – | 1030 h | 725 ppm | – | –
8 | CCCCCCCCCCC(C)OC(=O)OCCS(=O)(=O)O (stereo not shown) [SE2DC, Sodium 2-sulfoethyl 2-dodecylcarbonate] | 47% | 160 mm | 162 mm | 3.7 to 4.0 mM | 0 °C | – | 223 h | > 2700 ppm | – | –
